In patent publication US6737383B1, “Herbicidal oxadiazolidines” (priority 1999, dated 2004):

Legend:
blackgrass = experiment: Test B pre/postemergence blackgrass; type: in vivo, Alopecurus myosuroides
Method in brief: (§1)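 Herbicidal effect was estimated by eye on a ten-point control scale after plants spent twelve to sixteen days in a greenhouse following soil or foliar treatment. Foliar sprays targeted plants at one to four leaves; all doses were formulated in a non-phytotoxic solvent with surfactant.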

cocklebur = experiment: Test B pre/postemergence cocklebur; type: in vivo, Xanthium strumarium
Method in brief: as §1

soybean = experiment: Test B pre/postemergence soybean; type: in vivo, Glycine max; settings: Preemergence
Method in brief: as §1

wild oat = experiment: Test B pre/postemergence wild oat; type: in vivo, Avena fatua; settings: Preemergence
Method in brief: as §1

wheat = experiment: Test B pre/postemergence wheat; type: in vivo, Triticum aestivum; settings: Preemergence
Method in brief: as §1

crabgrass = experiment: Test B pre/postemergence crabgrass; type: in vivo, Digitaria sanguinalis
Method in brief: as §1

pigweed = experiment: Test B pre/postemergence pigweed; type: in vivo, Amaranthus retroflexus
Method in brief: as §1

duck salad = experiment: Test B flood test duck salad; type: in vivo, Heteranthera limosa
Method in brief: (§2)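 Plants were grown to the 2-leaf stage before treatment with test chemical, then held in a greenhouse for twelve to sixteen days. Injury was visually rated against untreated controls on a 0–10 scale, where 0 is no effect and 10 is complete control.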

rice = experiment: Test B flood test rice; type: in vivo, Oryza sativa
Method in brief: as §2

giant foxtail = experiment: Test B pre/postemergence giant foxtail; type: in vivo, Setaria faberii
Method in brief: as §1

bamyardgrass = experiment: Test B flood test barnyardgrass; type: in vivo, Echinochloa crus-galli
Method in brief: as §2

rape = experiment: Test B pre/postemergence rape; type: in vivo, Brassica napus
Method in brief: as §1

velvetleaf = experiment: Test B pre/postemergence velvetleaf; type: in vivo, Abutilon theophrasti; settings: Preemergence
Method in brief: as §1

bedstraw = experiment: Test B pre/postemergence bedstraw; type: in vivo, Galium aparine
Method in brief: as §1

morningglory = experiment: Test B pre/postemergence morningglory; type: in vivo, Ipomoea hederacea
Method in brief: as §1

purple nutsedge = experiment: Test B pre/postemergence purple nutsedge; type: in vivo, Cyperus rotundus
Method in brief: as §1

smallflower flatsedge = experiment: Test B flood test smallflower flatsedge; type: in vivo, Cyperus difformis
Method in brief: as §2

surinam grass = experiment: Test B pre/postemergence surinam grass; type: in vivo, Brachiaria decumbens
Method in brief: as §1

corn = experiment: Test B pre/postemergence corn; type: in vivo, Zea mays
Method in brief: as §1

sugar beet = experiment: Test B pre/postemergence sugar beet; type: in vivo, Beta vulgaris; settings: Preemergence
Method in brief: as §1

[1] = Preemergence, Rate 31 g/ha, visual rating, scale 0 to 10 (0 no effect, 10 complete control)
[2] = Preemergence, Rate 62 g/ha, scale of 0 to 10 where 0 is no effect and 10 is complete control
[3] = Preemergence, Rate 250 g/ha, scale of 0 to 10 where 0 is no effect and 10 is complete control
[4] = Rate 31 g/ha, Postemergence, scale 0 to 10
[5] = Rate 62 g/ha, Postemergence, scale of 0 to 10 where 0 is no effect and 10 is complete control
[6] = Rate 125 g/ha, Postemergence, scale 0 to 10
[7] = Rate 125 g/ha, Preemergence, scale of 0 to 10 where 0 is no effect and 10 is complete control
[8] = Rate 31 g/ha, visual rating, scale 0 to 10 (0 no effect, 10 complete control)
[9] = Rate 62 g/ha, scale of 0 to 10 where 0 is no effect and 10 is complete control
[10] = Rate 250 g/ha, scale of 0 to 10 where 0 is no effect and 10 is complete control
[11] = Rate 125 g/ha, scale of 0 to 10 where 0 is no effect and 10 is complete control
[12] = Rate 62 g/ha, headed Pre-emergence (flood test species), scale 0 to 10 (0 no effect, 10 complete control)
[13] = Rate 125 g/ha, Pre-emergence, flood test species, scale 0 to 10 where 0 is no effect and 10 is complete control
[14] = Rate 250 g/ha, Pre-emergence, flood-test species, scale 0 to 10, 0 is no effect, 10 is complete control
[15] = Rate 500 g/ha, Pre-emergence, flood test species, scale 0 to 10 (0 no effect, 10 complete control)

CCN(CC)C(=O)Cn1c(=O)on(C(=O)N(c2ccc(F)cc2)C(C)C)c1=O [Compound 264]
5: Wild oats plant response rating (wild oat; [10]) | B. signalgrass plant response rating (surinam grass; [3])
3: Plant response rating (0 to 10; 0 is no effect, 10 is complete control), Blackgrass (blackgrass; Rate 250 g/ha, Postemergence) | Soybean plant response rating (soybean; [10]) | Crabgrass plant response rating (crabgrass; [3])
1: Rice plant response rating (rice; [15]) | Sugarbeets plant response rating (sugar beet; [10])
7: Giant foxtail plant response rating (giant foxtail; [3]) | Giant foxtail plant response rating (giant foxtail; [7])
6: Bedstraw plant response rating (bedstraw; [6]) | Plant response rating (0 to 10; 0 is no effect, 10 is complete control), Bedstraw (bedstraw; Rate 250 g/ha, Postemergence) | Morningglory plant response rating (morningglory; [4])
2: Blackgrass plant response rating (blackgrass; [5]) | Blackgrass plant response rating (blackgrass; [6]) | Wild oats plant response rating (wild oat; [9]) | Wheat plant response rating (wheat; [10]) | Crabgrass plant response rating (crabgrass; [7]) | Giant foxtail plant response rating (giant foxtail; [2])
10: Plant response rating (0 to 10; 0 is no effect, 10 is complete control), Morningglory (morningglory; Rate 250 g/ha, Postemergence)
0: Blackgrass plant response rating (blackgrass; [1]) | Blackgrass plant response rating (blackgrass; [2]) | Blackgrass plant response rating (blackgrass; [4]) | Blackgrass plant response rating (blackgrass; [7]) | Cocklebur plant response rating (cocklebur; [1]) | Cocklebur plant response rating (cocklebur; [2]) | Cocklebur plant response rating (cocklebur; [3]) | Cocklebur plant response rating (cocklebur; [4]) | Cocklebur plant response rating (cocklebur; [5]) | Cocklebur plant response rating (cocklebur; [6]) | Cocklebur plant response rating (cocklebur; [7]) | Plant response rating (0 to 10; 0 is no effect, 10 is complete control), Cocklebur (cocklebur; Rate 250 g/ha, Postemergence) | Soybean plant response rating (soybean; [8]) | Soybean plant response rating (soybean; [9]) | Soybean plant response rating (soybean; [11]) | Wild oats plant response rating (wild oat; [8]) | Wheat plant response rating (wheat; [8]) | Wheat plant response rating (wheat; [9]) | Wheat plant response rating (wheat; [11]) | Crabgrass plant response rating (crabgrass; [1]) | Crabgrass plant response rating (crabgrass; [2]) | Crabgrass plant response rating (crabgrass; [4]) | Plant response rating (0 to 10; 0 is no effect, 10 is complete control), Crabgrass (crabgrass; Rate 250 g/ha, Postemergence) | Redroot pigweed plant response rating (pigweed; [1]) | Redroot pigweed plant response rating (pigweed; [2]) | Redroot pigweed plant response rating (pigweed; [3]) | Redroot pigweed plant response rating (pigweed; [4]) | Redroot pigweed plant response rating (pigweed; [7]) | Plant response rating (0 to 10; 0 is no effect, 10 is complete control), Redroot pigweed (pigweed; Rate 250 g/ha, Postemergence) | Ducksalad plant response rating (duck salad; [12]) | Ducksalad plant response rating (duck salad; [13]) | Ducksalad plant response rating (duck salad; [14]) | Ducksalad plant response rating (duck salad; [15]) | Rice plant response rating (rice; [12]) | Rice plant response rating (rice; [13]) | Rice plant response rating (rice; [14]) | Giant foxtail plant response rating (giant foxtail; [1]) | Giant foxtail plant response rating (giant foxtail; [4]) | Plant response rating (0 to 10; 0 is no effect, 10 is complete control), Giant foxtail (giant foxtail; Rate 250 g/ha, Postemergence) | Barnyardgrass plant response rating (bamyardgrass; [12]) | Barnyardgrass plant response rating (bamyardgrass; [13]) | Barnyardgrass plant response rating (bamyardgrass; [14]) | Barnyardgrass plant response rating (bamyardgrass; [15]) | Rape plant response rating (rape; [1]) | Rape plant response rating (rape; [2]) | Rape plant response rating (rape; [3]) | Rape plant response rating (rape; [4]) | Rape plant response rating (rape; [7]) | Plant response rating (0 to 10; 0 is no effect, 10 is complete control), Rape (rape; Rate 250 g/ha, Postemergence) | Velvetleaf plant response rating (velvetleaf; [8]) | Velvetleaf plant response rating (velvetleaf; [9]) | Velvetleaf plant response rating (velvetleaf; [10]) | Velvetleaf plant response rating (velvetleaf; [11]) | Bedstraw plant response rating (bedstraw; [1]) | Bedstraw plant response rating (bedstraw; [2]) | Bedstraw plant response rating (bedstraw; [3]) | Bedstraw plant response rating (bedstraw; [4]) | Bedstraw plant response rating (bedstraw; [5]) | Bedstraw plant response rating (bedstraw; [7]) | Morningglory plant response rating (morningglory; [1]) | Morningglory plant response rating (morningglory; [2]) | Morningglory plant response rating (morningglory; [3]) | Morningglory plant response rating (morningglory; [7]) | Nutsedge plant response rating (purple nutsedge; [1]) | Nutsedge plant response rating (purple nutsedge; [3]) | Nutsedge plant response rating (purple nutsedge; [4]) | Plant response rating (0 to 10; 0 is no effect, 10 is complete control), Nutsedge (purple nutsedge; Rate 250 g/ha, Postemergence) | S. Flatsedge plant response rating (smallflower flatsedge; [12]) | S. Flatsedge plant response rating (smallflower flatsedge; [13]) | S. Flatsedge plant response rating (smallflower flatsedge; [14]) | S. Flatsedge plant response rating (smallflower flatsedge; [15]) | B. signalgrass plant response rating (surinam grass; [1]) | B. signalgrass plant response rating (surinam grass; [2]) | B. signalgrass plant response rating (surinam grass; [4]) | B. signalgrass plant response rating (surinam grass; [5]) | B. signalgrass plant response rating (surinam grass; Rate 125 g/ha, Postemergence, scale 0 (no effect) to 10 (complete control)) | B. signalgrass plant response rating (surinam grass; [7]) | Plant response rating (0 to 10; 0 is no effect, 10 is complete control), B. signalgrass (surinam grass; Rate 250 g/ha, Postemergence) | Corn plant response rating (corn; [1]) | Corn plant response rating (corn; [2]) | Corn plant response rating (corn; [3]) | Corn plant response rating (corn; [4]) | Corn plant response rating (corn; [5]) | Corn plant response rating (corn; [6]) | Corn plant response rating (corn; [7]) | Plant response rating (0 to 10; 0 is no effect, 10 is complete control), Corn (corn; Rate 250 g/ha, Postemergence) | Sugarbeets plant response rating (sugar beet; [8]) | Sugarbeets plant response rating (sugar beet; [9]) | Sugarbeets plant response rating (sugar beet; [11])
4: Blackgrass plant response rating (blackgrass; [3]) | Wild oats plant response rating (wild oat; [11])
